From the NIST ThermoML archive (doi:10.1016/j.jct.2011.10.027)

Experiment: xn = mol fraction of the nth substance listed
Conditions: 101 kPa, Liquid, Vibrating tube method

CCCCN(CCCC)CCCC [tributylamine] + O=[N+]([O-])c1ccccc1
mass density [kg/m3]
Conditions | 293.15 K | 298.15 K | 303.15 K | 313.15 K | 323.15 K | 333.15 K
x1 = 0.0806 | 1132.44 | 1127.65 | 1122.87 | 1113.29 | 1103.7 | 1094.1
x1 = 0.1692 | 1068.2 | 1063.58 | 1058.97 | 1049.72 | 1040.46 | 1031.17
x1 = 0.2426 | 1023.24 | 1018.75 | 1014.26 | 1005.27 | 996.24 | 987.2
x1 = 0.3259 | 979.47 | 975.11 | 970.74 | 961.98 | 953.2 | 944.4
x1 = 0.3993 | 945.96 | 941.69 | 937.43 | 928.86 | 920.27 | 911.63
x1 = 0.4829 | 912.69 | 908.52 | 904.33 | 895.96 | 887.56 | 879.12
x1 = 0.5607 | 885.41 | 881.32 | 877.22 | 869.01 | 860.76 | 852.46
x1 = 0.6392 | 861.09 | 857.07 | 853.04 | 844.97 | 836.86 | 828.72
x1 = 0.7176 | 839.19 | 835.25 | 831.29 | 823.36 | 815.4 | 807.4
x1 = 0.7976 | 819.27 | 815.39 | 811.5 | 803.7 | 795.86 | 787.99
x1 = 0.8779 | 801.19 | 797.38 | 793.55 | 785.88 | 778.17 | 770.42
x1 = 0.9546 | 785.56 | 781.8 | 778.03 | 770.48 | 762.89 | 755.25

CCCCN(CCCC)CCCC [tributylamine] + Cc1cccc(C)c1
mass density [kg/m3]
Conditions | 293.15 K | 298.15 K | 303.15 K | 313.15 K | 323.15 K | 333.15 K
x1 = 0.0803 | 851.21 | 846.99 | 842.76 | 834.27 | 825.72 | 817.11
x1 = 0.1564 | 840.57 | 836.42 | 832.26 | 823.89 | 815.48 | 806.98
x1 = 0.2405 | 830.31 | 826.21 | 822.11 | 813.87 | 805.59 | 797.24
x1 = 0.3223 | 821.61 | 817.57 | 813.53 | 805.4 | 797.23 | 788.99
x1 = 0.3983 | 814.42 | 810.43 | 806.43 | 798.4 | 790.32 | 782.19
x1 = 0.4784 | 807.64 | 803.69 | 799.74 | 791.81 | 783.83 | 775.79
x1 = 0.5497 | 802.22 | 798.31 | 794.4 | 786.54 | 778.64 | 770.68
x1 = 0.6375 | 796.16 | 792.3 | 788.42 | 780.65 | 772.84 | 764.97
x1 = 0.7175 | 791.21 | 787.38 | 783.55 | 775.85 | 768.1 | 760.32
x1 = 0.7958 | 786.77 | 782.98 | 779.18 | 771.54 | 763.87 | 756.15
x1 = 0.8823 | 782.31 | 778.55 | 774.78 | 767.21 | 759.6 | 751.95
x1 = 0.9616 | 778.58 | 774.84 | 771.1 | 763.6 | 756.05 | 748.45
